In US11591363B2, “Crystalline forms of beta-sitosterol” (CENTER FOR I[…] IN CRYSTAL ENGINEERING, S.L., priority 2017, dated 2023):
≈ marks a conversion by molar mass, not a printed value. Where two headings read alike, the source gives them in different places.

Legend:
[1] = Solubility test, shake-flask in FaSSIF-V2; type: physicochemical; conditions: for solubility at 24 h: thermodynamic from solid, read-out: Log S (logarithm of S in mol/L) (converted); for solubility, comparison between tested samples: FaSSIF-V2, pH 6.5, 25° C.
Experimental: This test is focused on evaluating the solubility in Fasted State Simulated Intestinal Fluid (FaSSIF-V2).
5.1. Samples • Comparative sample A (reference): Standard sample of beta-Sitosterol from the Ph. Eu. Reference Standard, ref. (Y0001615) • Sample A: hydrate crystal of beta-sitosterol having 1.25 molecules of water of the present invention • Sample B: cocrystal of beta-sitosterol and gallic acid Form 5 of the present invention
Solubility is determined in FaSSIF-V2 media, prepared as stated by Biorelevant.com using maleic acid buffer (pH=6.5).
All experiments are done under temperature control at 25±1° C. The weight of tested samples expressed in mg, and FaSSIF final volume expressed in mL are as defined in Table below:
Shaking time: 24 h in a rotational stirrer. After 4-5 h of shaking, pH is measured and readjusted to the initial value (6.5) in case it is needed. • Equilibration time: 24 h • Final pH measurement • Phase separation: filtration through a hydrophilic filter (PTFE membrane, 0.45 μm porous size, 4 mm diameter, Millex-LH, Millipore). Before the filtration, the filter was conditioned with sample solution for 1 h. After that time, filtration started rejecting the first drops of sample. • Solid form characterization: solid obtained after filtration is analysed by XRPD to know the exact solid form obtained after the shake-flask procedure. In case of cocrystals, XRPD analysis confirms that experiments are done under eutectic point conditions. • Liquid phase is used for API and coformer quantification.
5.3.2. HPLC Quantification • Instrument: Shimadzu HPLC, with diode array detector (SPD-M10AVPI), two pumps (LC-10ADVP), autoinjector (SIL-10ADVP) and column oven (CTO-10ASVP). • Column:
For comparative sample A and sample A quantification: Phenomenex Kinetex C18, 100×4.6 mm, 2.6 μm. For sample B quantification: Phenomenex Luna C18, 150×4.6 mm, 5 μm. • Conditions:
For comparative sample A and sample A quantification: Mobile phase composed of 80% Methanol-20% Acetonitrile. Isocratic conditions. Flow: 0.8 mL/min. Injection volume: 20 μL.
For sample B quantification: Mobile phase composed of 20 mM formic acid at pH=3 (A) and methanol (B). Gradient conditions: 0-3 min, 5% B; 8 min, 10% B; 15 min, 100% B; 17 min, 5% B; 25 min, 5% B. Flow: 1 mL/min. Injection volume: 10 μL.
Quantification wavelength: 210 nm for comparative sample A and 280 nm for sample A.
The amounts of comparative sample A, sample A and sample B in the filtered solutions coming from Shake-Flask (SF) experiments have been quantified according to the described methodology.
Solubility of the samples A and B has been calculated through the equilibrium concentrations in the eutectic point as described in “S. J. Bethune, N. Huang, A. Jayasankar, N. Rodriguez-Hornedo, Crystal Growth and Design 9, 2009, 3976-3988”, taking into account the stoichiometry of each sample.

[2] = Particle size test by laser diffraction; type: physicochemical
Excerpt: This test provides the particle size of the co-crystals of the present invention in comparison with the comparaitive Standard sample of beta-Sitosterol from the Ph. Eu. Reference Standard, ref. (Y0001615)
7.1. Tested Samples • Comparative sample A: comparaitive Standard sample of beta-Sitosterol from the Ph. Eu. Reference Standard, ref. (Y0001615) • Sample A: hydrate crystal of beta-sitosterol having 1.25 molecules of water of the present invention • Sample B: cocrystal of beta-sitosterol and gallic acid Form 5 of the present invention • Sample C: cocrystal of beta-sitosterol and propionic acid Form 2 of the present invention
The particle size was performed by laser diffraction. For this purpose, a Beckman-Coulter model. LS13320 laser diffractometer (Fullerton, Calif., USA) was equipped with a Micro. Liquid Module (MLM) wet dispersion modul, an an optic model (Fraunhofer. Rdf, PIDS). The measurement range is 0.4-2000 μm.

[3] = test system: Plasma cholesterol levels; test: Activity test: plasma cholesterol after oral load of lard; type: in vivo, Golden Syrian male Hamsters; conditions: measured at 5 h (T5) vs T0, oral load of lard 2.5 g/kg BW supplemented with 0.513 g/kg BW
[4] = test system: circulating β-sitosterol levels; test: Activity test: sitosterolemia (plasma beta-sitosterol, GC-FID) after oral load of lard; type: in vivo, Golden Syrian male Hamsters; conditions: for decrease in circulating levels of β-sitosterol: 5 h post-treatment (T5) with respect to T0 value, oral load of lard 2.5 g/kg BW supplemented with 0.513 g/kg BW
[5] = Bioavailability assessment: plasma beta-sitosterol after 21 days high-fat diet
[6] = test system: Plasma triglyceride levels; test: Activity test: plasma triglycerides after oral load of lard; type: in vivo, Golden Syrian male Hamsters; conditions: for reduction of the plasmatic triglyceride concentration: T5 (5 h) vs T0
[7] = FaSSIF-V2, pH 6.5, 25±1° C., shake-flask 24 h, value (SD)

CC[C@H](CC[C@@H](C)[C@H]1CC[C@H]2[C@@H]3CC=C4C[C@@H](O)CC[C@]4(C)[C@H]3CC[C@]12C)C(C)C [Comparative sample A, beta-sitosterol]
solubility at 24 h ([1]; FaSSIF-V2, 25 °C, pH 6.5, fassif, FaSSIF-V2, pH 6.5, 25±1° C., shake-flask 24 h, value (SD)): 0.851 µM (≈ 0.353 µg/mL) | [API] concentration of beta-sitosterol in the solutions coming from SF experiments [1, 7]: 0.36 (0.06) mg/mL | D10 [2]: 44.62 μm | D50 [2]: 108.0 μm | D90 [2]: 178.8 μm | D(3, 2) surface weighted mean diameter [2]: 30.19 μm | Mean particle size [2]: 109.9 μm

CC[C@H](CC[C@@H](C)[C@H]1CC[C@H]2[C@@H]3CC=C4C[C@@H](O)CC[C@]4(C)[C@H]3CC[C@]12C)C(C)C [cocrystal Form 2, cocrystal of beta-sitosterol and propionic acid]
decrease of plasmatic cholesterol levels ([3]; listed as Test sample C): 21% | decrease in circulating levels of β-sitosterol ([4]; listed as test sample C): 14% | Fold-change (FC) of increase of circulating beta-sitosterol with respect to controls (comparative group A) ([5]; 0.264 g beta-sitosterol/kg BW, control set to 1, listed as test sample C): 6.4 | FC increment of circulating beta-sitosterol in relation to reference sample B1 value ([5]; same dose 0.264 g beta-sitosterol/kg BW): 2.7 | plasma triglyceride concentrations at T5, comparison between groups (FIG. 15) ([6]; 5 h post-oral fat load, 0.513 g/kg BW): lower levels at T5 in comparison with both Compound A and compound B | reduction of the plasmatic triglyceride concentration ([6]; oral load of lard 2.5 g/kg BW supplemented with 0.513 g/kg BW, listed as test sample C): 20% | D10 ([2]; listed as Sample C): 6.671 μm | D50 ([2]; listed as Sample C): 28.01 μm | D90 ([2]; listed as Sample C): 47.60 μm | D(3, 2) surface weighted mean diameter ([2]; listed as Sample C): 13.19 μm | Mean particle size ([2]; listed as Sample C): 27.77 μm

CC[C@H](CC[C@@H](C)[C@H]1CC[C@H]2[C@@H]3CC=C4C[C@@H](O)CC[C@]4(C)[C@H]3CC[C@]12C)C(C)C [comparative sample B, beta-sitosterol]
decrease of plasmatic cholesterol levels [3]: 25% | decrease in circulating levels of β-sitosterol [4]: 23% | percentage of variation on β-sitosterol plasma levels T5 vs T0, comparison with control (FIG. 16) ([4]; 5 h post-treatment, 0.513 g/kg BW): decrease in comparison with control (group A) | increase in triglyceridemia at 5 h (T5) ([6]; T5 vs T0, oral load of lard 2.5 g/kg BW supplemented with 0.513 g/kg BW): 39%

CC[C@H](CC[C@@H](C)[C@H]1CC[C@H]2[C@@H]3CC=C4C[C@@H](O)CC[C@]4(C)[C@H]3CC[C@]12C)C(C)C [hydrate crystal form of beta-sitosterol, beta-sitosterol]
decrease of plasmatic cholesterol levels ([3]; listed as test sample D): 29% | solubility at 24 h ([1]; 25 °C, FaSSIF-V2, pH 6.5, 25±1° C., calculated through the equilibrium concentrations in the eutectic point, taking into account stoichiometry): 5.01 µM | solubility, comparison between tested samples [1]: more soluble than the commercially available beta-sitosterol | [API] concentration of beta-sitosterol in the solutions coming from SF experiments ([1]; FaSSIF-V2, pH 6.5, 25±1° C., shake-flask 24 h, value (SD), listed as Sample A): 2.5 (1) mg/mL | decrease in circulating levels of β-sitosterol ([4]; listed as test sample D): 34% | reduction of the plasmatic triglyceride concentration ([6]; oral load of lard 2.5 g/kg BW supplemented with 0.513 g/kg BW, listed as test sample D): 2% | D10 ([2]; listed as Sample A): 4.145 μm | D50 ([2]; listed as Sample A): 16.39 μm | D90 ([2]; listed as Sample A): 34.63 μm | D(3, 2) surface weighted mean diameter ([2]; listed as Sample A): 8.558 μm | Mean particle size ([2]; listed as Sample A): 18.12 μm

CC[C@H](CC[C@@H](C)[C@H]1CC[C@H]2[C@@H]3CC=C4C[C@@H](O)CC[C@]4(C)[C@H]3CC[C@]12C)C(C)C [reference sample B1, beta-sitosterol]
Fold-change (FC) of increase of circulating beta-sitosterol with respect to controls (comparative group A) ([5]; 0.264 g beta-sitosterol/kg BW, control set to 1): 2.4

CC[C@H](CC[C@@H](C)[C@H]1CC[C@H]2[C@@H]3CC=C4C[C@@H](O)CC[C@]4(C)[C@H]3CC[C@]12C)C(C)C [reference sample B2, beta-sitosterol]
Fold-change (FC) of increase of circulating beta-sitosterol with respect to controls (comparative group A) ([5]; 0.528 g/kg BW, control set to 1): 5.3

cocrystal of beta-sitosterol and benzyl alcohol [cocrystal Form 4]
decrease of plasmatic cholesterol levels [3]: 31% | decrease in circulating levels of β-sitosterol [4]: 12% | reduction of the plasmatic triglyceride concentration ([6]; oral load of lard 2.5 g/kg BW supplemented with 0.513 g/kg BW): 7%

cocrystal of beta-sitosterol and gallic acid [cocrystal Form 5]
solubility, comparison between tested samples [1]: more soluble than the remaining tested samples | [API] concentration of beta-sitosterol in the solutions coming from SF experiments [1, 7]: 3.0 (1.5) mg/mL | Log S (logarithm of S in mol/L) ([1]; FaSSIF-V2, pH 6.5, 25±1° C., calculated through the equilibrium concentrations in the eutectic point, taking into account stoichiometry): −4.7 (0.1) mol/L | Fold-change (FC) of increase of circulating beta-sitosterol with respect to controls (comparative group A) ([5]; equivalent to 0.158 g of beta-sitosterol/kg BW, control set to 1): 4.7 | Fold-change (FC) of increase of circulating beta-sitosterol with respect to controls (comparative group A) ([5]; equivalent to 0.330 g of beta-sitosterol/kg BW, control set to 1): 7.9 | D10 [2]: 3.102 μm | D50 [2]: 10.24 μm | D90 [2]: 23.21 μm | D(3, 2) surface weighted mean diameter [2]: 6.009 μm | Mean particle size [2]: 12.05 μm
